43 compounds from patent US8957062B2, “Substituted cyclopropyl compounds, compositions containing such compounds and methods of treatment” (Merck Sharp & Dohme Corp., priority 2011, dated 2015) can be followed below.

Usually EC50 stands for the concentration giving half of the maximal effect.

In the assay the target is T1, human GPR119 (Homo sapiens, UniProt Q8TDV5).
T1 sequence (Q8TDV5 1-308 limits assumed): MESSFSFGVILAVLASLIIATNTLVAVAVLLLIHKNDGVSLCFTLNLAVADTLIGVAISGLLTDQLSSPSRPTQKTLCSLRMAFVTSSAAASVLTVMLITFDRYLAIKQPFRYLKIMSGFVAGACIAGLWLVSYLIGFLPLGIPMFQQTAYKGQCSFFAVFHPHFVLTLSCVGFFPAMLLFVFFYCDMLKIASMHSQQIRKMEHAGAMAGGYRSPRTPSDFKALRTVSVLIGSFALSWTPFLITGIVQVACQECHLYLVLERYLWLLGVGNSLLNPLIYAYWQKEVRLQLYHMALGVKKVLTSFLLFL
Nature of the assay: Measurement of GPR119 signaling (cAMP assay) in cells stably transfected with human GPR119. The class given is cell-based. The following applies: table column; cAMP stimulation, human GPR119; read-out: GPR119 Human EC50.
`CC(C)c1noc(N2CCC([C@H]3C[C@H]3CCOc3ccc(CC(=O)N4CCc5oncc5C4)c(F)c3)CC2)n1` [Example 177]: the EC50 turned out to be 1.8 nM.
As for `CC(C)c1noc(N2CCC([C@H]3C[C@H]3CCOc3ccc(CC(=O)N4CCn5nc(C(F)(F)F)nc5C4C)c(F)c3)CC2)n1` (stereo partly shown) [Example 178], the EC50 stood at 14 nM.
The value for `Cc1nc2c(s1)CN(C(=O)Cc1ccc(OCC[C@@H]3C[C@@H]3C3CCN(c4nc(C(C)C)no4)CC3)cc1F)CC2` [Example 179] was 2.6 nM; that for `CC(C)c1noc(N2CCC([C@H]3C[C@H]3CCOc3ccc(CC(=O)N4CCn5ccnc5C4)c(F)c3)CC2)n1` [Example 180] was 4.9 nM.
The value for `CC(C)c1noc(N2CCC([C@H]3C[C@H]3CCOc3ccc(CC(=O)N4CCc5cccnc5C4)c(F)c3)CC2)n1` [Example 181] was 3.7 nM.
The value for `CC(C)c1noc(N2CCC([C@H]3C[C@H]3CCOc3ccc(CC(=O)N4Cc5nnc(C(F)(F)F)n5C(C)C4)c(F)c3)CC2)n1` (stereo partly shown) [Example 182] was 8.7 nM; that for `Cc1nc2c(o1)CN(C(=O)Cc1ccc(OCC[C@@H]3C[C@@H]3C3CCN(c4nc(C(C)C)no4)CC3)cc1F)CC2` [Example 183] was 2.1 nM.
For the compound `CC(C)c1noc(N2CCC([C@H]3C[C@H]3CCOc3ccc(CC(=O)N4CCc5nc(C(F)(F)F)sc5C4)c(F)c3)CC2)n1` [Example 184], the EC50 came out at 3.5 nM.
As to `CC(C)c1noc(N2CCC([C@H]3C[C@H]3CCOc3ccc(CC(=O)N4Cc5nnc(C(F)(F)F)n5C(C)(C)C4)c(F)c3)CC2)n1` [Example 185], the EC50 was found to be 8.8 nM.
Consider `CC(C)c1noc(N2CCC([C@H]3C[C@H]3CCOc3ccc(CC(=O)N4CC(O)(C(F)(F)F)C4)c(F)c3)CC2)n1` [Example 186], for which the EC50 was 2.6 nM.
With `CC(C)c1noc(N2CCC([C@H]3C[C@H]3CCOc3ccc(CC(=O)N4CC(n5cccn5)C4)c(F)c3)CC2)n1` [Example 187], the EC50 is 3 nM.
The value for `CC(C)c1noc(N2CCC([C@H]3C[C@H]3CCOc3ccc(CC(=O)N4CC(n5ccnc5)C4)c(F)c3)CC2)n1` [Example 188] was 6.4 nM.
The value for `CC(C)c1noc(N2CCC([C@H]3C[C@H]3CCOc3ccc(CC(=O)N4Cc5sccc5C(O)C4)c(F)c3)CC2)n1` (stereo partly shown) [Example 189] was 4.7 nM.
The value for `CC(C)c1noc(N2CCC([C@H]3C[C@H]3CCOc3ccc(CC(=O)N4CC(c5cccnc5)C4)c(F)c3)CC2)n1` [Example 190] was 3.6 nM; that for `CC(C)c1noc(N2CCC([C@H]3C[C@H]3CCOc3ccc(CC(=O)NC4CCC(F)(F)C4)c(F)c3)CC2)n1` (stereo partly shown) [Example 191] was 2.8 nM; that for `Cc1nc2c([nH]1)CN(C(=O)Cc1ccc(OCC[C@@H]3C[C@@H]3C3CCN(c4nc(C(C)C)no4)CC3)cc1F)C2` [Example 192] was 4.2 nM.
In the case of `CC(C)c1noc(N2CCC([C@H]3C[C@H]3CCOc3ccc(CC(=O)N4CCc5nccnc5C4)c(F)c3)CC2)n1` [Example 193], the EC50 is 1.3 nM.
For `CC(C)c1noc(N2CCC([C@H]3C[C@H]3CCOc3ccc(CC(=O)N4CCn5nc(C(F)(F)F)nc5C4)c(F)c3)CC2)n1` [Example 194] the value was 1.5 nM; for `CC(C)c1noc(N2CCC([C@H]3C[C@H]3CCOc3ccc(CC(=O)N4CCn5ncnc5C4)c(F)c3)CC2)n1` [Example 195], 1.6 nM; for `Cc1nc2c(o1)CCN(C(=O)Cc1ccc(OCC[C@@H]3C[C@@H]3C3CCN(c4nc(C(C)C)no4)CC3)cc1F)C2` [Example 196], 1.4 nM.
For `CC(C)c1noc(N2CCC([C@H]3C[C@H]3CCOc3ccc(CC(=O)N4CCc5[nH]nnc5C4)c(F)c3)CC2)n1` [Example 197] the value was 2.9 nM.
For `COCc1noc(N2CCC([C@H]3C[C@H]3CCOc3ccc(CC(=O)NC4CC4)c(F)c3)CC2)n1` [Example 198] the value was 13 nM.
Turning to `COCc1noc(N2CCC([C@H]3C[C@H]3CCOc3ccc(CC(=O)N4CC(F)C4)c(F)c3)CC2)n1` [Example 199], the concentration giving a half-maximal response (EC50) was 2 nM.
The value for `COCc1noc(N2CCC([C@H]3C[C@H]3CCOc3ccc(CC(=O)N4CC(F)(F)C4)c(F)c3)CC2)n1` [Example 200] was 1.2 nM.
For `COCc1noc(N2CCC([C@H]3C[C@H]3CCOc3ccc(CC(=O)N(C)C)c(F)c3)CC2)n1` [Example 201] the value was 5.9 nM; for `COCc1noc(N2CCC([C@H]3C[C@H]3CCOc3ccc(CC(=O)N4CCOCC4)c(F)c3)CC2)n1` [Example 202], 9.8 nM; for `COCc1noc(N2CCC([C@H]3C[C@H]3CCOc3ccc(CC(=O)N4CCC[C@@H]4C(F)(F)F)c(F)c3)CC2)n1` [Example 203], 5.1 nM.
For `COCc1noc(N2CCC([C@H]3C[C@H]3CCOc3ccc(CC(=O)N4CCC[C@H]4C(F)(F)F)c(F)c3)CC2)n1` [Example 204], the half-maximal effective concentration (EC50) came to 3.6 nM.
In the case of `COCc1noc(N2CCC([C@H]3C[C@H]3CCOc3cc(F)c(CC(=O)N4CCC4)c(F)c3)CC2)n1` [Example 205], the 50% effective concentration (EC50) is 1.2 nM.
Turning to `COCc1noc(N2CCC([C@H]3C[C@H]3CCOc3cc(F)c(CC(=O)N(C)C)c(F)c3)CC2)n1` [Example 206], the EC50 is 2.5 nM.
For `COCc1noc(N2CCC([C@H]3C[C@H]3CCOc3cc(F)c(CC(=O)N4CCOCC4)c(F)c3)CC2)n1` [Example 207] the value was 3.1 nM; for `CC(C)c1noc(N2CCC([C@H]3C[C@H]3CCOc3ccc(S(C)(=O)=O)cn3)CC2)n1` [Example 209], 2 nM.
As to `CS(=O)(=O)c1ccc(OCC[C@@H]2C[C@@H]2C2CCN(c3nc(C4CC4)no3)CC2)nc1` [Example 210], the EC50 amounted to 6 nM.
For `CCCc1noc(N2CCC([C@H]3C[C@H]3CCOc3ccc(S(C)(=O)=O)cn3)CC2)n1` [Example 211], the EC50 turned out to be 8 nM.
For `CS(=O)(=O)c1ccc(OCC[C@@H]2C[C@@H]2C2CCN(c3nc(C4CCC4)no3)CC2)nc1` [Example 212] the value was 4.8 nM; for `Cc1noc(N2CCC([C@H]3C[C@H]3CCOc3ccc(S(C)(=O)=O)cn3)CC2)n1` [Example 213], 11 nM; for `CCc1noc(N2CCC([C@H]3C[C@H]3CCOc3ccc(S(C)(=O)=O)cn3)CC2)n1` [Example 214], 3.2 nM.
Consider `COC(C)c1noc(N2CCC([C@H]3C[C@H]3CCOc3ccc(S(C)(=O)=O)cn3)CC2)n1` (stereo partly shown) [Example 215], for which the EC50 stood at 5.8 nM.
Regarding `COCCc1noc(N2CCC([C@H]3C[C@H]3CCOc3ccc(S(C)(=O)=O)cn3)CC2)n1` [Example 216], the EC50 was 26 nM.
Consider `CS(=O)(=O)c1ccc(OCC[C@@H]2C[C@@H]2C2CCN(c3nc(COCC(F)(F)F)no3)CC2)nc1` [Example 217], for which the EC50 was found to be 7.8 nM.
With `CCOCc1noc(N2CCC([C@H]3C[C@H]3CCOc3ccc(S(C)(=O)=O)cn3)CC2)n1` [Example 218], the 50% effective concentration (EC50) was determined as 14 nM.
The value for `COCc1noc(N2CCC([C@H]3C[C@H]3CCOc3ccc(S(C)(=O)=O)cc3)CC2)n1` [Example 221] was 3.4 nM; that for `COCc1noc(N2CCC([C@H]3C[C@H]3CCOc3ccc(S(C)(=O)=O)c(F)c3)CC2)n1` [Example 222] was 0.9 nM.
